In patent publication US9745384B2, “Peptides useful for modulating histone demethylase function” (The Brigham and Women's Hospital, Inc., priority 2012, dated 2017):
Ends that are not written are not given here.

Key:
His-LSD2 = target: T1, His-LSD2 (Homo sapiens, UniProt Q8NB78); experiment: Nucleosome demethylation assay (NPAC cofactor activity for LSD2, immunoblot); assay type: biochemical; details: threshold dosage of His-LSD2; nucleosomes purified from HeLa
T1 construct: typically 0.5 μg full-length His-LSD2; made in house; host or cells: Sf9 insect cells
T1 sequence (Q8NB78 1-822): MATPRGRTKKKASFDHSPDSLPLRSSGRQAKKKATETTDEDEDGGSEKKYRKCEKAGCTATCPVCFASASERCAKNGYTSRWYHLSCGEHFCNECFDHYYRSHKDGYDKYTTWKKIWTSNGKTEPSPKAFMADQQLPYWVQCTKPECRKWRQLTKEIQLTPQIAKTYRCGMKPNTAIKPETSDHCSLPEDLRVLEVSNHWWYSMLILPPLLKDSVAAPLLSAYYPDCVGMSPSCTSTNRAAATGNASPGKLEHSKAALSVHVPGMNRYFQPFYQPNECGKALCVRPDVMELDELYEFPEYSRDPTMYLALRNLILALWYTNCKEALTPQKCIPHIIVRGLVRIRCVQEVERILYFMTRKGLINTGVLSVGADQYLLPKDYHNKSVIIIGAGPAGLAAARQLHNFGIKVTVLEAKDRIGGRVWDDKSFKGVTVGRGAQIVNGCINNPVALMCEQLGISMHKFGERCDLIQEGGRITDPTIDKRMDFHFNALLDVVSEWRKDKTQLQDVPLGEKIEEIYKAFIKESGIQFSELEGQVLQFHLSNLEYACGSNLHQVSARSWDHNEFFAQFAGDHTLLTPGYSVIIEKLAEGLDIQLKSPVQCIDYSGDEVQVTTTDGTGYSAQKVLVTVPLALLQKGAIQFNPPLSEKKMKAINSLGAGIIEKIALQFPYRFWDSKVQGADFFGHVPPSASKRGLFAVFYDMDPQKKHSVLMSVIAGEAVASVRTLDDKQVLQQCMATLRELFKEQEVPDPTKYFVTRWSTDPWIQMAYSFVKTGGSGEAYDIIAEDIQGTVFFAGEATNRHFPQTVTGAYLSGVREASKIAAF
Protocol: For nucleosome demethylation assays, typically 0.5 μg full-length His-LSD2, 1 μg NPAC protein or peptides, and 2 μg nucleosomes purified from HeLa were used, and demethylation efficiency was analyzed by SDS-PAGE electrophoresis and immunoblot using methylation specific anti-histone H3 antibodies as previously described (Shi et al. 2004).

LSD2 (residues 51-822) = target: T2, LSD2 (residues 51-822) (Homo sapiens, UniProt Q8NB78); experiment: ITC binding of wild-type and mutant NPAC peptides (residues 214-225) with LSD2; details: 15 °C; 3 mM NPAC peptide injected into 0.2 mM LSD2
T2 construct: Human LSD2 (residues 51-822) was subcloned into a pFastBacl derivative; His6 (cleaved yes); made in house; host or cells: Sf9 insect cells (baculovirus)
T2 sequence (Q8NB78 51-822): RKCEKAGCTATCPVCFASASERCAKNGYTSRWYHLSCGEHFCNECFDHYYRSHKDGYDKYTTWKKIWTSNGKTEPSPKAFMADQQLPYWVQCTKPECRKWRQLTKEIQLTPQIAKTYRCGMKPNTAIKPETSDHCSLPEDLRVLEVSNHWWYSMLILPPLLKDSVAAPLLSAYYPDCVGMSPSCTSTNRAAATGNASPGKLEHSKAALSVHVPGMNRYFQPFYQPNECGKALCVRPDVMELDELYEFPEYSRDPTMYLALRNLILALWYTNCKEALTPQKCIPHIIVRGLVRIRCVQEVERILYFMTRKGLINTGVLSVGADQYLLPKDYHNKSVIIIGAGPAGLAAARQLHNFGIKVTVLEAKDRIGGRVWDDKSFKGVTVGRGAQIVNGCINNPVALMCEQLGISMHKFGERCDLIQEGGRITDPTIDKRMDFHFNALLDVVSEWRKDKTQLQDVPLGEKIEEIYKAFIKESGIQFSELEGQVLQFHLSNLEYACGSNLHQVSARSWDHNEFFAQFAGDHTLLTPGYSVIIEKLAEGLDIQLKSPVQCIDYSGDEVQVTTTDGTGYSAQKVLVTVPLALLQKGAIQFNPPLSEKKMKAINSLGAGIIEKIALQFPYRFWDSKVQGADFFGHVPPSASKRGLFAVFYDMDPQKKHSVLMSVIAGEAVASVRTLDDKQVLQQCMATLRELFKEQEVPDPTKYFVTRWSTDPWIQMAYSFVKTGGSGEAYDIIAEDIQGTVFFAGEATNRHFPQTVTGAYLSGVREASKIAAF
Protocol: (§1) All proteins and peptides were prepared in 10 mM HEPES, pH 8.0, and 0.1 M NaCl. The data were fitted by software Origin 7.0.

NPAC214-225.WT = target: T3, NPAC214-225.WT (Homo sapiens, UniProt Q49A26); experiment: ITC binding between H3K4M peptide and wild-type NPAC peptide alone; details: FIG. 6H
T3 construct: wild-type or mutant NPAC peptides (residues 214-225); made in house; host or cells: chemical synthesis

LSD2 = target: T4, LSD2 (Homo sapiens, UniProt Q8NB78); experiment: H3K4me2 peptide demethylation assay (MALDI-TOF); assay type: biochemical; details: H3K4me2 peptide residues 1-21
T4 construct: 0.15 μM or 1.2 μM purified LSD2 (residues 51-822); His6 (cleaved yes); made in house; host or cells: Sf9 insect cells (baculovirus)
T4 sequence (Q8NB78 51-822): T2 sequence (Q8NB78 51-822)
Protocol: FIGS. 12A-12F depict analysis of LSD2 demethylation activity and mutational analysis. […] Demethylation products were analyzed by MALDI-TOF mass spectrometry. 0.15 μM LSD2 can efficiently demethylate the longer H3K4me2 peptide (1-21), but has no detectable activity on the shorter histone peptide (1-15), demethylation of which requires high concentration (1.2 μM) of LSD2. […] It indicates the importance of histone residue 16-21 to LSD2 enzymatic activity and NPAC cofactor activity, supporting our model that NPAC assists enzyme-substrate interactions by creating a new binding site for H3 L20 in the LSD2-NPAC complex. FIG. 12C depicts LSD2 demethylation and NPAC cofactor activity on longer H3K4me2 peptide (1-44). 2 μg H3K4me2 peptide (1-44) were incubated with 0.8 μg GST-LSD2 (1-822) and 2 μg wild-type or F217A full-length GST-NPAC proteins in 100 μl demethylation buffer (50 mM Tris-HCl pH 8.1, 1 mM NAD^+, 0.1 Unit formaldehyde dehydrogenase) at 30° C. for 2 hours. LSD2 alone can efficiently demethylate di-methyl H3K4 of the long peptides, converting large majority of the substrate to H3K4me1. Wild-type NPAC protein can efficiently stimulate LSD2 demethylation, producing unmethylated H3K4. F217A mutation impairs NPAC cofactor activity as expected, showing little stimulatory effect if any. To compare demethylation efficiency, 1.2 μg bio-H3K4me2 peptide (H3 residue 1-21, equal molar ratio to 2 ug H3K4me2 1-44 peptide in above assays) was demethylated by LSD2 under identical conditions (bottom panel). […] The cofactor activity of wild-type NPAC was readily detected under the same conditions. […] Importantly, the demethylation of nucleosomal H3K4me2 was much more efficient in the presence of wild-type NPAC under same conditions (comparing lane 3 verse 4, and 8 verse 9). It is noted that no obvious cofactor effect of F217A peptide or linker regions was detected in nucleosome and peptide demethylation assays (FIG. 6E and data not shown). FIG. 12F depicts Coomassie staining of NPAC proteins used in histone demethylase assays. FIG. 12F discloses “His6” as SEQ ID NO: 75.
Histone peptides are purchased from Millipore, or custom synthesized. The purity of all peptides are >95% as determined by HPLC and mass spectrometry. In vitro histone demethylase activity assays were performed as described (Shi et al., 2004). Briefly, purified LSD2 and NPAC derived peptides or proteins were incubated with 50 μM H3K4me2 peptides (residues 1-21) in 50 mM Tris-HCl, pH 8.5, 50 mM KCl, 5 mM MgCl2, 5% glycerol at 37° C. for 30 min. The products were desalted through a C18 Ziptip (Millipore) and analyzed on a MALDI-TOF micro MX mass spectrometer (ABI 4700, Applied Biosystems). The laser intensity was kept constant for all of the samples. All MS data were processed using Data Explorer 4.5 (Applied Biosystems). […]

[1] = target: T5, LSD2 and NPAC.214-225.F217A (Homo sapiens, UniProt Q8NB78); experiment: ITC binding of H3K4M peptide with LSD2 in complex with F217A NPAC peptide; details: FIG. 6H
T5 construct: containing 0.029 mM LSD2 (residues 51-822) or LSD2-NPAC complex; His6 (cleaved yes); made in house; host or cells: LSD2: Sf9 insect cells; NPAC peptide: chemical synthesis
Protocol: as §1

| Binding ratio (LSD2 (residues 51-822)) | Kd (LSD2 (residues 51-822)) [nM] | Δ H (LSD2 (residues 51-822)) [kcal/mol] | Δ S (LSD2 (residues 51-822)) [cal/mol/deg] | Affinity of NPAC peptide to H3K4M peptide (NPAC214-225.WT) | Sequence | Cofactor activity: stimulation of LSD2 demethylation of nucleosomal H3K4me2 (His-LSD2) | Cofactor activity: stimulation of LSD2 demethylation of H3K4me2 peptide (LSD2) | Ability of NPAC peptide to stabilize the LSD2-H3K4M peptide interaction [1] |
| --- | --- | --- | --- | --- | --- | --- | --- | --- |
| 1.06 ± 0.01 | 920 ± 80 | -8.482 ± 0.121 | −1.82 | no appreciable affinity to H3K4M peptide | DPHFHHFLLSQT [NPAC.214-225.WT] | sufficient to enhance LSD2 activity in nucleosome demethylation assays | can stimulate LSD2-mediated demethylation of H3K4me2 peptides |  |
| 1.10 ± 0.01 | 930 ± 70 | -8.182 ± 0.097 | −0.783 |  | DPHAHHFLLSQT [NPAC.214-225.M6] | abolishes cofactor activity | but not the F217A mutant, can stimulate LSD2-mediated demethylation of H3K4me2 peptides | significantly diminishes the ability of NPAC to stabilize the interaction between LSD2 and the H3K4M peptide |
